Results as given in publication PMC8154581, “Discovery of Novel Thiophene-arylamide Derivatives as DprE1 Inhibitors with Potent Antimycobacterial Activities” (Journal of Medicinal Chemistry, 2021).
In brackets after ≈: the same amount, converted by molar mass. Several values for one entry are separate records, joined by “and”; a condition that tells them apart may be missing. Identical values can stand only once. Like-named read-outs stand apart in the source and are kept apart here.

Tests used:
[1] = system: Vero cells; experiment: Cytotoxicity assay in Vero cells (MTT); format: cell-based; settings: for IC50: Chlorocebus sabaeus, Vero cells, 48 h, read-out: IC50 (Vero)
[2] = system: M. tuberculosis H37Rv; experiment: MIC against replicating M. tuberculosis H37Rv, microplate Alamar blue assay (MABA); format: cell-based
[3] = Cytotoxicity assay in HepG2 cells (MTT); settings: human
[4] = Hepatocyte stability assay, human; settings: human hepatocytes
[5] = system: M. tuberculosis (H37Rv) in infected mouse J774A.1 macrophages; format: cell-based
[6] = Pharmacokinetic studies in Balb/c mice; settings: for AUC(0-inf) at 24 h / AUC(0-t) at 24 h / Cmax at 24 h / MRT inf at 24 h / clearance at 24 h / half-life at 24 h / Tmax at 24 h / bioavailability at 24 h: male, Balb/c, mouse, in vivo
[7] = Hepatocyte stability assay, mouse; settings: male, mouse hepatocytes
[8] = biological target: Mt-DprE1 (Mycobacterium tuberculosis, UniProt P9WJF1); format: biochemical, M. tuberculosis
[9] = biological target: hERG K+ channel (Homo sapiens, UniProt Q12809); experiment: Inhibition of the hERG K+ channel, electrophysiology
[10] = system: M. tuberculosis H37Rv; experiment: In vivo efficacy in acute TB infection model in Balb/c mice; settings: for log10 CFU/lung: oral, three weeks, INH 25 mg/kg; for Δlog10 CFU: in vivo
[11] = Mycobacterium tuberculosis, H37RV, against M. tuberculosis H37Rv, Tables 1-3
[12] = Mycobacterium tuberculosis, H37RV, supplementary CSV, same values as Tables 1-3, read-out: Minimal inhibit concentration
[13] = Mycobacterium tuberculosis, H37RV, Table 4, read-out: MIC H37Rv
[14] = Mycobacterium tuberculosis, H37RV, against M. tuberculosis H37Rv, Tables 1-3, read-out: MIC
[15] = first column (batch with 25a; untreated 6.44), 25a 100 mg/kg
[16] = second column (another batch, with TCA1; untreated 7.10), TCA1 100 mg/kg

hERG K+ channel, sequence (Q12809 whole entry): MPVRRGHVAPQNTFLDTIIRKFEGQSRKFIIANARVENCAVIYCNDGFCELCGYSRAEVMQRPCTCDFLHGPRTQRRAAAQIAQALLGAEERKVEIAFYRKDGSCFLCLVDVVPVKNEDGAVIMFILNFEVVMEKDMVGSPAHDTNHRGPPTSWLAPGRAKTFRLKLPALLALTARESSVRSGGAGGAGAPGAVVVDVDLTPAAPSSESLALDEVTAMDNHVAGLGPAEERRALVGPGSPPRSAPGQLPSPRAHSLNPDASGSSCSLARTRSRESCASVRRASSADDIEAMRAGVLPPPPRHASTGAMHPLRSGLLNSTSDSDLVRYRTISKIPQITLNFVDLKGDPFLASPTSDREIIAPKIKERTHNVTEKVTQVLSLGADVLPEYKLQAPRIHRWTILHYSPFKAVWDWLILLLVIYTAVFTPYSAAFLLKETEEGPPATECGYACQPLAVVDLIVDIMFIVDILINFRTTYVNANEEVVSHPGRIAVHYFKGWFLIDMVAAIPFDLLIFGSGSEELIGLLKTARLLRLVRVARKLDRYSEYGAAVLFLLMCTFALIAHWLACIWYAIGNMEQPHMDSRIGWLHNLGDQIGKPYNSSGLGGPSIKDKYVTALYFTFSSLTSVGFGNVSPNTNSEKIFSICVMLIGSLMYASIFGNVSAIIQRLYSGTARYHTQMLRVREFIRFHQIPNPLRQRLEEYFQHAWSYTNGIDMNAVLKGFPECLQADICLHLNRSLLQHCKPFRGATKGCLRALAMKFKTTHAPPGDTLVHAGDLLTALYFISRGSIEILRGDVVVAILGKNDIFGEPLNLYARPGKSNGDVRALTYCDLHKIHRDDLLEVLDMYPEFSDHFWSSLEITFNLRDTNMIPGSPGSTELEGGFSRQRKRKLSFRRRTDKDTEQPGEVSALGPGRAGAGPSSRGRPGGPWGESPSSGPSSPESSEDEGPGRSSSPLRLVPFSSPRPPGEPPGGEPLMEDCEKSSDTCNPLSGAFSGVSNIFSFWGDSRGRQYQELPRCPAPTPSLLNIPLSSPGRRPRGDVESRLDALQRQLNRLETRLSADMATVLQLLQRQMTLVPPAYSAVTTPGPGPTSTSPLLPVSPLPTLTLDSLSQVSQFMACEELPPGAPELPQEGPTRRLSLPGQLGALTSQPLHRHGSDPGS
Mt-DprE1, sequence (P9WJF1 whole entry, looked up): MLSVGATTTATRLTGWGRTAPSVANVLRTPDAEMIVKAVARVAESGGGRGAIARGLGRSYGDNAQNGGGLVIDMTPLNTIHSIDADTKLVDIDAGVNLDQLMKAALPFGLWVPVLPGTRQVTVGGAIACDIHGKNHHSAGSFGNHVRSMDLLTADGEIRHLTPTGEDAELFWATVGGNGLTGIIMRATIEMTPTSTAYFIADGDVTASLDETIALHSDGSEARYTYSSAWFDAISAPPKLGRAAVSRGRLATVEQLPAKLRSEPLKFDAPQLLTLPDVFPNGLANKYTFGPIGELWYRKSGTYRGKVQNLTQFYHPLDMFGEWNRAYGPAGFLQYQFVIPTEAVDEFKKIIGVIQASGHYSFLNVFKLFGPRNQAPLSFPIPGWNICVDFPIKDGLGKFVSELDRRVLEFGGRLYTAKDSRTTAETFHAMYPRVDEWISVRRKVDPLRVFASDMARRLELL

Row | Compound | IC50 [1] [µg/mL] | melting point [°C] | MIC [2, 12] [µg/mL] | MIC [2, 13] [µg/mL] | IC50 at 48 h [3] [µg/mL] | half-life at 1 µM [4] [min] | remaining at 0.5 h, 1 µM [4] [%] | log10 CFU/macrophages [5] | AUC(0-inf) at 24 h ([6]; iv, 5 mg/kg) [ng·h/mL] | AUC(0-t) at 24 h ([6]; iv, 5 mg/kg) [ng·h/mL] | Cmax at 24 h ([6]; iv, 5 mg/kg) [ng/mL] | MRT inf at 24 h ([6]; iv, 5 mg/kg) [min] | clearance at 24 h ([6]; iv, 5 mg/kg) [mL/min/kg] | half-life at 24 h ([6]; iv, 5 mg/kg) [min] | AUC(0-inf) at 24 h ([6]; po, 50 mg/kg) [ng·h/mL] | AUC(0-t) at 24 h ([6]; po, 50 mg/kg) [ng·h/mL] | half-life at 1 µM [7] [min] | IC50 DprE1 [8] [µg/mL] | IC50 [9] [µM] | MIC [2, 14] [µg/mL] | also measured
1 | CCOC(=O)NC(=O)c1ccsc1NC(=O)c1ccc(C(=O)N2CCCCC2)c(F)c1 [Compound 24f, Ethyl (2-(3-Fluoro-4-(piperidine-1-carbonyl)benzamido)thiophene-3-carbonyl)carbamate] | > 64 | 186 to 187 | < 0.016 | 0.02 to 0.12 (≈ 0.0447 to 0.268 µM) | > 64 | 38.1 | 58 | 4.18 ± 0.04 log10 CFU and 4.41 ± 0.10 log10 CFU | 184 | 183 | 1300 | 7.8 | 479 | 7.8 | 57.9 | 41.9 | 43.7 | 0.2 ± 0.04 (≈ 0.447 µM) | > 30 | – | MIC H37Rv ([2]; Table 4): 0.020 µg/mL (≈ 0.0447 µM); MIC [2, 11]: < 0.016 µg/mL; Cmax at 24 h ([6]; po, 50 mg/kg): 25.4 ng/mL; MRT inf at 24 h ([6]; po, 50 mg/kg): 126 min; Tmax at 24 h ([6]; po, 50 mg/kg): 60 min; bioavailability at 24 h ([6]; po, 50 mg/kg): 2.3%; half-life at 24 h ([6]; po, 50 mg/kg): 102 min; remaining at 0.5 h, 1 µM [7]: 62.1%
2 | CCOC(=O)NC(=O)c1ccsc1NC(=O)c1coc(C(=O)N2CCCCC2)c1 [Compound 24k, Ethyl (2-(5-(Piperidine-1-carbonyl)furan-3-carboxamido)thiophene-3-carbonyl)carbamate] | > 64 | 157 to 158 | 0.37 (≈ 0.882 µM) | 0.15 (≈ 0.358 µM) | – | – | – | – | – | – | – | – | – | – | – | – | – | – | – | 0.37 (≈ 0.882 µM) | SI [1]: >173
3 | COC(=O)NC(=O)c1ccsc1NC(=O)c1ccc(C(=O)N2CCCCC2)cc1 [Compound 25a, Methyl (2-(4-(Piperidine-1-carbonyl)benzamido)thiophene-3-carbonyl)carbamate] | > 64 | – | 0.19 (≈ 0.457 µM) | – | > 64 | 20.3 | 35.9 | 4.77 ± 0.10 log10 CFU and 5.06 ± 0.03 log10 CFU | 833 | 830 | 4560 | 12 | 101 | 15.6 | 657 | 651 | 27.1 | 0.9 ± 0.2 (≈ 2.17 µM) | 22.6 | 0.19 (≈ 0.457 µM) | log10 CFU/lung [10, 15]: 4.42 ± 0.45 log10 CFU; Δlog10 CFU [10]: 2.02 log10 CFU; Δlog10 CFU [5]: 0.75 log10 CFU and 0.46 log10 CFU; Cmax at 24 h ([6]; po, 50 mg/kg): 486 ng/mL; MRT inf at 24 h ([6]; po, 50 mg/kg): 66 min; Tmax at 24 h ([6]; po, 50 mg/kg): 34.8 min; bioavailability at 24 h ([6]; po, 50 mg/kg): 7.9%; half-life at 24 h ([6]; po, 50 mg/kg): 51 min; remaining at 0.5 h, 1 µM [7]: 46.5%
4 | COC(=O)NC(=O)c1ccsc1NC(=O)c1ccc(C(=O)N2CCCCC2)c(F)c1 [Compound 25b, Methyl (2-(3-Fluoro-4-(piperidine-1-carbonyl)benzamido)thiophene-3-carbonyl)carbamate] | > 64 | – | 0.03 (≈ 0.0692 µM) | 0.02 to 0.12 (≈ 0.0461 to 0.277 µM) | > 64 | 32.6 | 52.8 | 4.59 ± 0.05 log10 CFU and 4.75 ± 0.21 log10 CFU | – | – | – | – | – | – | – | – | 12.5 | 0.4 ± 0.1 (≈ 0.923 µM) | > 30 | 0.03 (≈ 0.0692 µM) | MIC H37Rv ([2]; Table 4): 0.030 µg/mL (≈ 0.0692 µM); Δlog10 CFU [5]: 0.93 log10 CFU and 0.77 log10 CFU; remaining at 0.5 h, 1 µM [7]: 19%
5 | Cc1ccnc(NC(=O)c2ccsc2NC(=O)c2ccc(C(=O)N3CCCCC3)cc2)n1 [Compound 25j, N-(4-Methylpyrimidin-2-yl)-2-(4-(piperidine-1-carbonyl)benzamido)thiophene-3-carboxamide] | 51.9 (≈ 115 µM) | 177 to 178 | 1.94 (≈ 4.32 µM) | – | – | – | – | – | – | – | – | – | – | – | – | – | – | – | – | – | MIC [2, 11]: 1.94 µg/mL (≈ 4.32 µM)
6 | Cc1ccnc(NC(=O)c2ccsc2NC(=O)c2ccc(C(=O)N3CCCCC3)c(F)c2)n1 [Compound 25k, 2-(3-Fluoro-4-(piperidine-1-carbonyl)benzamido)-N-(4-methylpyrimidin-2-yl)thiophene-3-carboxamide] | > 64 | 148 to 150 | 0.47 (≈ 1.01 µM) | – | – | – | – | – | – | – | – | – | – | – | – | – | – | – | – | 0.47 (≈ 1.01 µM) | SI [1]: >136
7 | O=C(Nc1sccc1C(=O)Nc1nccc(C(F)(F)F)n1)c1ccc(C(=O)N2CCCCC2)cc1 [Compound 25l, 2-(4-(Piperidine-1-carbonyl)benzamido)-N-(4-(trifluoromethyl)pyrimidin-2-yl)thiophene-3-carboxamide] | > 64 | 182 to 183 | 0.2 (≈ 0.397 µM) | 0.2 (≈ 0.397 µM) | – | – | – | 4.54 ± 0.00 log10 CFU and 4.59 ± 0.03 log10 CFU | – | – | – | – | – | – | – | – | – | 0.4 ± 0.1 (≈ 0.794 µM) | – | 0.2 (≈ 0.397 µM) | MIC ([2]; against M. tuberculosis H37Rv, Tables 1-3): 0.20 µg/mL (≈ 0.397 µM); Δlog10 CFU [5]: 0.98 log10 CFU and 0.93 log10 CFU
8 | NNC(=O)c1ccncc1 [INH, isoniazid, reference compound] | – | – | – | 0.019 (≈ 0.139 µM) | – | – | – | – | – | – | – | – | – | – | – | – | – | – | – | – | log10 CFU/lung [10, 15]: 1.76 ± 0.49 log10 CFU; Δlog10 CFU [10]: 4.68/5.17 log10 CFU; log10 CFU/lung [10, 16]: 1.93 ± 0.21 log10 CFU
9 | CCOC(=O)NC(=O)c1ccsc1NC(=O)c1nc2ccccc2s1 [TCA1, reference compound] | 31.8 (≈ 84.6 µM) | – | – | 0.47 (≈ 1.25 µM) | 46.1 (≈ 123 µM) | 5.97 | 3.1 | – | 7910 | 7910 | 14300 | 23.4 | 10.6 | 28.2 | 33700 | 33700 | 85.3 | 0.1 ± 0.01 (≈ 0.266 µM) | 18.3 | 0.48 (≈ 1.28 µM) | Δlog10 CFU [10]: 2.86 log10 CFU; log10 CFU/lung [10, 16]: 4.24 ± 0.25 log10 CFU; enhancement of oral bioavailability relative to 25a ([6]; Balb/c mice): 5 fold; Cmax at 24 h ([6]; po, 50 mg/kg): 10600 ng/mL; MRT inf at 24 h ([6]; po, 50 mg/kg): 172 min; Tmax at 24 h ([6]; po, 50 mg/kg): 60 min; bioavailability at 24 h ([6]; po, 50 mg/kg): 42.6%; half-life at 24 h ([6]; po, 50 mg/kg): 131 min; remaining at 0.5 h [7]: 74.8%
